In patent US5948630A, “Method and composition for reducing the effects of endogenous alkaline phosphatase” (Dade Behring Inc., priority 1996, dated 1999):

Legend:
Human Liver ALP = target: T1, Human Liver ALP (Homo sapiens, UniProt P05186); assay: Ki of inhibitors for human liver ALP (Table 1); assay type: biochemical; conditions: Enzyme: Human Liver
T1 sequence (P05186 18-502 limits assumed): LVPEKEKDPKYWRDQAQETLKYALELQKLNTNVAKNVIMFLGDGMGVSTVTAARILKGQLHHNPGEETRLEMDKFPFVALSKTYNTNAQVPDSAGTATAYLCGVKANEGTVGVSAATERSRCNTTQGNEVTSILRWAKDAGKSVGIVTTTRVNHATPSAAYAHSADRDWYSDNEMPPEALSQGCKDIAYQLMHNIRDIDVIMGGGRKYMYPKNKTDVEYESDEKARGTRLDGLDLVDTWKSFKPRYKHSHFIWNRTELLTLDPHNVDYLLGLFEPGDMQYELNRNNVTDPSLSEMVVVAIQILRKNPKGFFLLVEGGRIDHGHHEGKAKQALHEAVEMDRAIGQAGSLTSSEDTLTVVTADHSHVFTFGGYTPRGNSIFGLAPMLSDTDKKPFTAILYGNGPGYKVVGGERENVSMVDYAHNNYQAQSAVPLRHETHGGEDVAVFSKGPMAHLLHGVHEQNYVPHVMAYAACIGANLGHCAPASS
Description: Another approach to reduce the effects of the human ALPs is to use inhibitors of ALPs in the substrate solution.

[1] = target: T2, ALPs in Sarcoma 180/TG ascites cells (Mus musculus, UniProt P09242); conditions: J. Med. Chem. 1977, 20: 563-566; cited from earlier work
T2 construct: host or cells: Sarcoma 180/TG ascites cells
T2 sequence (P09242 18-502 limits assumed): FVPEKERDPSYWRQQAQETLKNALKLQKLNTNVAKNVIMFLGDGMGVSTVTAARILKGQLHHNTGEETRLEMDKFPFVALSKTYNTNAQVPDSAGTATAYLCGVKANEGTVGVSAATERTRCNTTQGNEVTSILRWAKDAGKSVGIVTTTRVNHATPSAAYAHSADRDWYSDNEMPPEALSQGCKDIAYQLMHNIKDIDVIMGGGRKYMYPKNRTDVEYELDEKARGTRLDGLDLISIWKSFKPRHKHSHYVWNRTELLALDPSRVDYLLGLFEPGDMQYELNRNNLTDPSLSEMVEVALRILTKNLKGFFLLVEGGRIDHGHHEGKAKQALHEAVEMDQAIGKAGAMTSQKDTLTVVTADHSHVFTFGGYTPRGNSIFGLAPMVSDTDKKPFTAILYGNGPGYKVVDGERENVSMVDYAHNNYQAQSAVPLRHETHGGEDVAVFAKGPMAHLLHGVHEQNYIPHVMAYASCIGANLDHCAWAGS

[2] = system: endogenous ALP (high molecular weight and/or elevated normal ALP) in patient serum samples; assay: Background signal from endogenous ALP of patient serum samples on Stratus Fluorometric Analyzer, using each substrate/wash composition; set-up: species or system human; conditions: patient serum Samples 1-3 (FIGS. 1-3); ALP conjugate, 4-MUP substrate; rate in mv/min
Experimental: Three carcinoembryonic antigen (CEA) positive patient serum samples (Samples 1, 2, and 3) were identified as having high molecular weight ALP and/or elevated levels of normal ALP. These samples were tested using the compositions of this invention. The patient samples were evaluated on an automated immunoassay analyzer (the Stratus^R Fluorometric Analyzer from Baxter Diagnostics Inc.) which utilizes an ALP conjugate and a 4-MUP substrate. This automated analyzer combines the wash step with the substrate addition step. See, U.S. Pat. No. 4,517,288. The commercially available substrate composition (XWS) has the dual function of washing the solid phase and initiating the ALP reaction. […]
(§1) The samples were evaluated on the analyzer using each composition as the substrate/wash. […]
Five patient samples, Samples 1, 2, and 3 (as described in Example 1), Sample 4 (which originated from a patient who tested positive for colon cancer) and Sample 5 (which originated from a patient who tested positive for breast cancer) were identified as having high molecular weight ALP and/or elevated levels of normal ALP. These samples were evaluated using the compositions of this invention. The patient samples were evaluated on the automated immunoassay analyzer described in Example 1. […]
as §1

Ki (Human Liver ALP) [µM]	SMILES	Ki [1] [µM]	background signal generated from endogenous ALP / false positive reading [2]
98.5	Brc1ccc([C@H]2CN3CCSC3=N2)cc1 [Bromolevamisole]		
30.3	C1=CN2CC(c3ccc4ccccc4c3)N=C2S1 (stereo not shown) [Naphthyl, 5,6-Dihydro-6-(2-naphthyl)imidazo-[2,1-b]thiazole]	~1	substantially lowers the background signal
